The numbers were not newly measured in patent US7670624B2, “Gastrointestinal-specific multiple drug release system” (Astella Pharma Inc., priority 2004, dated 2010), which cites them from elsewhere.

Where a name gives a salt, the structure may show the parent alone.

For the data set the following is noted: in vivo.

In the case of `NC(N)=Nc1nc(CSCCC(N)=NS(N)(=O)=O)cs1` [Famotidine], the t1/2 is 3 h. Turning to `CN(C)c1ccc(O)c2c1C[C@H]1C[C@H]3[C@H](N(C)C)C(O)=C(C(N)=O)C(=O)[C@@]3(O)C(O)=C1C2=O` [Minocycline hydrochloride], the t1/2 is 9.5 h.
